Experimental data as given in patent US6184254A, “Methods of identifying modulators of perivascular sensory nerve Ca2+ receptors” (priority 1998, dated 2001).
“Also recorded” adds a separate entry of the source. Like-named read-outs stand apart in the source and are kept apart here. Ends that are not written are not given here.

Test system: Ca^2+-induced relaxation of mesenteric resistance arteries
Test: Inhibition of Ca2+-induced relaxation of mesenteric resistance arteries by antagonists or denervation
Set-up: species or system rat
Conditions: for Result (antagonist effect on Ca2+-induced relaxation): Table 3
[1] = FIG. 16, 3 μM miconazole, 1 μM pentobarbital or 1 μM quinacrine, p<0.05

## 4 Cl-D-Phe^6,Leu^17 -VIP
  Result (antagonist effect on Ca2+-induced relaxation): no effect

## COc1ccccc1CN[C@H]1CCCN[C@H]1c1ccccc1 [CP99, 994]
  Result (antagonist effect on Ca2+-induced relaxation): no effect

## COC(=O)[C@@H](N)CCCNC(=N)N[N+](=O)[O-] [L-NAME]
100 μM L-NAME
  effect on Ca2+-induced relaxation: inhibited/reversed
L-NAME pre-treatment
  effect on Ca2+-induced relaxation: partially inhibited
  Result (antagonist effect on Ca2+-induced relaxation): no effect

## CC(=O)NC1(c2ccccc2)CCN(CC[C@H](CN(C)C(=O)c2ccccc2)c2ccc(Cl)c(Cl)c2)CC1 [SR48968]
  Result (antagonist effect on Ca2+-induced relaxation): no effect

## CC(=O)N(C)C1(c2ccccc2)CCN(CCC[C@]2(c3ccc(Cl)c(Cl)c3)CCCN(C(=O)c3ccccc3)C2)CC1 [SR 142801]
  Result (antagonist effect on Ca2+-induced relaxation): no effect

## CC(C)Oc1cccc(CC(=O)N2CCC[C@](CC[N+]34CCC(c5ccccc5)(CC3)CC4)(c3ccc(Cl)c(Cl)c3)C2)c1 [SRI40333]
  Result (antagonist effect on Ca2+-induced relaxation): no effect

## CC[N+](CC)(CC)CC [TEA]
  effect on Ca2+-induced relaxation: completely inhibited; also recorded: antagonized

## CSCC[C@H](NC(=O)[C@H](CC(C)C)NC(=O)CNC(=O)[C@H](Cc1ccccc1)NC(=O)[C@H](Cc1ccccc1)NC(=O)[C@H](CCC(N)=O)NC(=O)[C@H](CCC(N)=O)NC(=O)[C@@H]1CCCN1C(=O)CNC(=O)[C@H](CC(C)C)NC(=O)[C@H](CC(C)C)NC(=O)[C@H](Cc1ccc(O)cc1)NC(=O)CNC(=O)[C@H](C)NC(=O)[C@H](CO)NC(=O)[C@H](CC(N)=O)NC(=O)[C@H](CC(C)C)NC(=O)[C@@H](NC(=O)[C@H](Cc1c[nH]c2ccccc12)NC(=O)CN)[C@@H](C)O)C(N)=O [galantide]
  Result (antagonist effect on Ca2+-induced relaxation): no effect

## COc1ccc2c(c1)c(CC(=O)O)c(C)n2C(=O)c1ccc(Cl)cc1 [indomethacin]
At 1.5 mM Ca2+
  Result (antagonist effect on Ca2+-induced relaxation): partial effect

## Clc1ccc(COC(Cn2ccnc2)c2ccc(Cl)cc2Cl)c(Cl)c1 (stereo not shown) [miconazole]
5 mM Ca2+
  effect on Ca2+-induced relaxation: significantly attenuated
Ca2+ 1.5-3 mM
  effect on Ca2+-induced relaxation: completely antagonized
[1]
  effect on Ca2+-induced relaxation: significantly attenuated

## Oc1ccc2c3c1O[C@H]1c4[nH]c5c(c4C[C@@]4(O)[C@@H](C2)N(CC2CC2)CC[C@]314)C[C@@]1(O)[C@H]2Cc3ccc(O)c4c3[C@@]1(CCN2CC1CC1)[C@H]5O4 [nor-binaltorphmine]
  Result (antagonist effect on Ca2+-induced relaxation): no effect

## CCCC(C)C1(CC)C(=O)NC(=O)NC1=O (stereo not shown) [pentobarbital]
  effect on Ca2+-induced relaxation: significantly attenuated
5 mM Ca2+
  effect on Ca2+-induced relaxation: significantly attenuated
Ca2+ 1.5-3 mM
  effect on Ca2+-induced relaxation: completely antagonized

## Oc1ccccc1 [phenol]
  effect on Ca2+-induced relaxation: completely blocks and often reverses; also recorded: significantly inhibited; also recorded: completely inhibits

## CCN(CC)CCCC(C)Nc1c2ccc(Cl)cc2nc2ccc(OC)cc12 (stereo not shown) [quinacrine]
[1]
  effect on Ca2+-induced relaxation: significantly attenuated
PLA2 blockade
  effect on Ca2+-induced relaxation: significantly attenuates

## CN1[C@@H]2CC[C@H]1C[C@@H](O)C2 [tropine]
  Result (antagonist effect on Ca2+-induced relaxation): no effect

## CGRP (8-37): CGRP antagonist (VTHRLAGLLSRSGGVVKNNFVPTNVGSKAF; ends and bridges not checked; UniProt P06881 90-119, looked up, fragment)
  Result (antagonist effect on Ca2+-induced relaxation): no effect

## spantide II
  Result (antagonist effect on Ca2+-induced relaxation): no effect

## tin protoporphorin IX
  Result (antagonist effect on Ca2+-induced relaxation): no effect
